Holding throughout (type): cell-based
Assay [1] has as its target T1, EGFR L858R+T790M, endogenous (NCI-H1975) (Homo sapiens, UniProt P00533, L858R/T790M).
T1 construct: NCI-H1975 (EGFR L858R+T790M, endogenous); host or cells: NCI-H1975
The experiment in a line: pEGFR Y1068 ELISA assay, NCI-H1975 cells. The following applies: inhibition of phosphorylation of EGFR at Tyr1068; NCI-H1975 NSCLC cells; 2 hr compound incubation. (In an ELISA, binding on a coated surface is turned into a signal by an enzyme label.)
Description: (§1) Phosphorylation of EGFR at Y1068 was measured by PathScan® Phospho-EGF Receptor (Try1068) Sandwich ELISA kit (#7240, Cell Signaling Technology®, Danvers, Mass.). The PathScan® Phospho-EGF Receptor (Tyr1068) Sandwich ELISA Kit is a solid phase sandwich enzyme-linked immunosorbent assay (ELISA) that detects endogenous levels of phospho-EGF Receptor (Tyr1068) protein. […] All cells were cultured according to ATCC recommendations. A549, NCI-H1975, PC9, and NCI-H3255 cells were grown in RPMI media (Invitrogen, Carlsbad, Calif.) supplemented with 10% FBS (Sigma, St Louis, Mo.), and with 1% Penn/Strep (Invitrogen). PC9-DRH cells were grown in RPMI with 10% FBS and 1 μM dacomitinib.
(§2) Cells were plated at 40,000/well in complete culture media (50 μL/well) on the bottom of clear tissue culture treated microtiter plates (#3595, Corning Inc, Corning, N.Y.) and allowed to adhere overnight at 37° C., 5% CO2. The following day, compound dilution plates were prepared in 96 well clear V-bottom 0.5 mL polypropylene block plates (#3956, Corning, Inc). Each compound was prepared as a DMSO stock solution (10 mM). Compounds were tested in duplicate on each plate, with an 11-point serial dilution curve (1:3 dilution). Compound treatment (50 μL) was added from the compound dilution plate to the cell plate. […] Plates were then incubated for 2 hr at 37° C., 5% CO2. For A549 (EGFR wildtype) assay, cells were plated in full-serum (10%) media for 24 hr prior to compound treatment; cells were treated in full serum media as described and then stimulated for 10 min with EGF (40 ng/mL/starvation media, Invitrogen). Immediately prior to the end of the incubation, ice-cold lysis buffer was prepared (1× Cell Lysis Buffer (#9803, Cell Signaling Technology), 1 mM sodium orthovanadate (Na3VO4, #96508, Sigma), 1 mM phenylmethanesulfonyl fluoride (PMSF, 52332, CalBiochem/EMD Chemicals), complete Mini EDTA-free Protease Inhibitor Cocktail Tablet (1 tablet/10 mL, #11836170001, Roche, Indianapolis, Ind.), and PhosSTOP Phosphatase Inhibitor Cocktail Tablet (1 tablet/10 mL, #04906837001, Roche) in pure water. At the end of 2 hr, media was flicked off and cells were washed once with ice-cold 1 mM Na3VO4 in PBS (100 μL/well, Invitrogen). The wash was then flicked off and ice-cold lysis buffer was added to the cells (50 μL/well). The plate was shaken for 20-30 min at 4° C. to completely lyse the cells. Sample diluent (50 μL/well) was added to the ELISA plate, and the lysate (50 μL) was diluted into the sample diluent in each well of the ELISA plate. Plates were sealed and incubated overnight at 4° C. with shaking. The next day, wells were washed four times with 1× Wash Buffer; plates were taped on lint-free paper after the final wash prior to adding Add Detection Antibody (green, 100 μL/well) to each well and incubating for 1 hr at 37° C. After incubation, wells were washed as described. HRP-Linked secondary antibody (red, 100 μL/well) was added to each well and incubated for 30 min at 37° C. After incubation, the wells were washed as described. TMB Substrate (100 μL/well) was added to each well and the plate incubated for 10 min at 37° C. or 30 min at rt maximum. Stop Solution (100 μL/well) was added to each well at the end of the incubation and plates were shaken gently for a few seconds. Absorbance was read at 450 nm within 30 min after addition of Stop Solution on a PerkinElmer EnVision Excite Multilabel Reader Method for Absorbance or on a Molecular Devices SpectraMax^384 Reader for absorbance. Data were analyzed using a four-parameter fit in Microsoft Excel.

For the next assay, the target named is T2, EGFR del/T790M (PC9-DRH) (Homo sapiens, UniProt P00533, DEL746-750/T790M).
T2 construct: detects endogenous levels of phospho-EGF Receptor (Tyr1068) protein; endogenous in cells; host or cells: PC9-DRH (dacomitinib-resistant derivative of PC9, generated in house)
T2 sequence (P00533 with tags, fused parts or gaps DEL746-750/T790M): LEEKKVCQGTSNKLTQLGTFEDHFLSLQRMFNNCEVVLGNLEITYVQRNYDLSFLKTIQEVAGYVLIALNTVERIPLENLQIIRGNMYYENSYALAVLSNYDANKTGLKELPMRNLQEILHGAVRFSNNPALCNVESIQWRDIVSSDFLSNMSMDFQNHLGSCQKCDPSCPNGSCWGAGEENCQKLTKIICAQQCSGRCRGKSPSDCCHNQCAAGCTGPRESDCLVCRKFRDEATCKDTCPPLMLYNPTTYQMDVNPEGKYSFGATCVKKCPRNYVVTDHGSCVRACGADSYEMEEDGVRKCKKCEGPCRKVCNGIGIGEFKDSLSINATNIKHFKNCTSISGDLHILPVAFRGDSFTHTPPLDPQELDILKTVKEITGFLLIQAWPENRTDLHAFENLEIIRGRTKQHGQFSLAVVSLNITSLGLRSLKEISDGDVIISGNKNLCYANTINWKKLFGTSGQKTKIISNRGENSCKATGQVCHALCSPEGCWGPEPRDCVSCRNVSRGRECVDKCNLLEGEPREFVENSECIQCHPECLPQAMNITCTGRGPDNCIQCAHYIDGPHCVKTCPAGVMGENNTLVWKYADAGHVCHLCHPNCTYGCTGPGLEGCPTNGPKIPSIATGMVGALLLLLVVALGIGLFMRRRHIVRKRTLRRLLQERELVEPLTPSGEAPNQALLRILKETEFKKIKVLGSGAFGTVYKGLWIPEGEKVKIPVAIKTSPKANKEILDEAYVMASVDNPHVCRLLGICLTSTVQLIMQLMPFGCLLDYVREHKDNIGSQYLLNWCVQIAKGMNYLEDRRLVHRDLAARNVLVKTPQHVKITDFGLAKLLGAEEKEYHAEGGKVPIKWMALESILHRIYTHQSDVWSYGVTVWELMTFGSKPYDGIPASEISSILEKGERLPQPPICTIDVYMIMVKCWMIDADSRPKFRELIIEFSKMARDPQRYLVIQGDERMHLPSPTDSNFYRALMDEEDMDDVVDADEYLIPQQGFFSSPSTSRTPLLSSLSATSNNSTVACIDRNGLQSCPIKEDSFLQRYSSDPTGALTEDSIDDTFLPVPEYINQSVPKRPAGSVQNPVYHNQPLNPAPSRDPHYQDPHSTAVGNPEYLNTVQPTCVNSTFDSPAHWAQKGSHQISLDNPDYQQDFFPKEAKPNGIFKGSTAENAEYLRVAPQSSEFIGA
Put plainly: pEGFR Y1068 ELISA assay, PC9-DRH cells. The following applies: inhibition of phosphorylation of EGFR at Tyr1068; PC9-DRH cells (dacomitinib resistant); 2 hr compound incubation.

The target in assay [2] is T3, EGFR wildtype, endogenous (A549) (Homo sapiens, UniProt P00533).
T3 construct: A549 (EGFR wildtype, endogenous); host or cells: A549 (stimulated with EGF)
T3 sequence (P00533 25-1210): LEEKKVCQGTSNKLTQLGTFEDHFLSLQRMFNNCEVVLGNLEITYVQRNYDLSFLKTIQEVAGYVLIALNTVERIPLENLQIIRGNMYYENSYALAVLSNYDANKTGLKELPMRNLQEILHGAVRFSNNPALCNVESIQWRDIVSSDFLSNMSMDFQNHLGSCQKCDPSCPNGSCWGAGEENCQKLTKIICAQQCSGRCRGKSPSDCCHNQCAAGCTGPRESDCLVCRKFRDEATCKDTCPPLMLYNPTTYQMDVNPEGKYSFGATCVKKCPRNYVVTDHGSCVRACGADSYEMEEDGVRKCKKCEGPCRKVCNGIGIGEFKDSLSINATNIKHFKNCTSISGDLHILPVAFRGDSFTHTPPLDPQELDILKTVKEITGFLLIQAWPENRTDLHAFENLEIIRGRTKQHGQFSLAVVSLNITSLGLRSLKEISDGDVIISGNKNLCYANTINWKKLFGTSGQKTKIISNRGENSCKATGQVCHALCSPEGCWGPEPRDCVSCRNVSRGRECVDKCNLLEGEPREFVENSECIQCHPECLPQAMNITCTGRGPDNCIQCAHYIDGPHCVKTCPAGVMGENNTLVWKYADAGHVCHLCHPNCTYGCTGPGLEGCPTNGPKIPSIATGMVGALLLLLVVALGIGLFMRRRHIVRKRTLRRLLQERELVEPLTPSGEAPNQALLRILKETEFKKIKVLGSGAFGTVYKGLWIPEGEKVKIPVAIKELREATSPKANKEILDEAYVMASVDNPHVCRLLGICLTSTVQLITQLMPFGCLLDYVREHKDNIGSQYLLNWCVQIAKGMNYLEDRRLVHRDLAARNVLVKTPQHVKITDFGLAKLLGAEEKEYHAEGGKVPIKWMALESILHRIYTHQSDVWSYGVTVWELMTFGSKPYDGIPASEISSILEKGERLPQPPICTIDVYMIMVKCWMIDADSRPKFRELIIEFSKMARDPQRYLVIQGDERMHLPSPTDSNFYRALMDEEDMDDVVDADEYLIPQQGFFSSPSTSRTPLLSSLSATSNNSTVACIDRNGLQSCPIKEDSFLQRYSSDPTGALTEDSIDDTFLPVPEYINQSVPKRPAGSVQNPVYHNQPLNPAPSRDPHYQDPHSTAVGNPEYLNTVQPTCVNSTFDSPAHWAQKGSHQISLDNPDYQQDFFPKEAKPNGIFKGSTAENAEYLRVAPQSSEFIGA
Put plainly: pEGFR Y1068 ELISA assay, A549 cells. As to conditions: inhibition of phosphorylation of EGFR at Tyr1068; A549 NSCLC cells; 2 hr compound incubation, then stimulated 10 min with EGF (40 ng/mL).
Description: as §1, §2

Data on 18 compounds can be found in patent publication US9290496B2, “Purine derivatives” (PFIZER INC., priority 2013, dated 2016).

A value given as a limit tells only on which side of the number the result lay.

T1 sequence (P00533 25-1210 T790M/L858R): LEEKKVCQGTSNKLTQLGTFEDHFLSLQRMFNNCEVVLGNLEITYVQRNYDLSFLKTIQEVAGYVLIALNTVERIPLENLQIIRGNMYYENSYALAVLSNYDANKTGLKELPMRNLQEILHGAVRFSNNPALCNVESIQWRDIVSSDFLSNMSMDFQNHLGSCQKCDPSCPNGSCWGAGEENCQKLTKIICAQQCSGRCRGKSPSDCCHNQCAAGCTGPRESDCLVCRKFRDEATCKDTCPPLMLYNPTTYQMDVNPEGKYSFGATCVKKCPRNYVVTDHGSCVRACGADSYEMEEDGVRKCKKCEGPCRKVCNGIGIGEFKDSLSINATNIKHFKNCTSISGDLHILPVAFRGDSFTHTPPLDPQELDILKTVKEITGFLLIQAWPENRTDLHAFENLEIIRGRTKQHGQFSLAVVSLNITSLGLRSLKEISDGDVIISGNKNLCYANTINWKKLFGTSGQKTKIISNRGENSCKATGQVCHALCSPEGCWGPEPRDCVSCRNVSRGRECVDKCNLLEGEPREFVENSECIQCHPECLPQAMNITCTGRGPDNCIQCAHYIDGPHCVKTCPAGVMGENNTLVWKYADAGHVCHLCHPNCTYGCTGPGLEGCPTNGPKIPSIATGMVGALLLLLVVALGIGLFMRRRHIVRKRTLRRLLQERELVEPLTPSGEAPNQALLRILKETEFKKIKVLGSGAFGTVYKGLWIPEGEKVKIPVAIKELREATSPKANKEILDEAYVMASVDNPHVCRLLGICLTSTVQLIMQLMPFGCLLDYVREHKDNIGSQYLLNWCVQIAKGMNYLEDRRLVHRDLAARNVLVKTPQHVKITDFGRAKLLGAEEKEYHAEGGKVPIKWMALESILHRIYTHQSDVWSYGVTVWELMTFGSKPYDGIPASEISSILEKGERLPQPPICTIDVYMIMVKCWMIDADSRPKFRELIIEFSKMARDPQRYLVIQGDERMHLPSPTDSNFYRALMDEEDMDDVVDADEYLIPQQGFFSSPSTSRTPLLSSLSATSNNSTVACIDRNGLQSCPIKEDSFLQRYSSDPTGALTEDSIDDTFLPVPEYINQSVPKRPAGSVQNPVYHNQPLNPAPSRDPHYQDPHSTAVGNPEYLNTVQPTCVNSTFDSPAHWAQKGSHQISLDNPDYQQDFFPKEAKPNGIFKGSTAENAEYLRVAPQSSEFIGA
Description for EGFR del/T790M (PC9-DRH): The PathScan® Phospho-EGF Receptor (Tyr1068) Sandwich ELISA Kit is a solid phase sandwich enzyme-linked immunosorbent assay (ELISA) that detects endogenous levels of phospho-EGF Receptor (Tyr1068) protein. […] NCI-H3255 cells were licensed from NCI. […] All cells were cultured according to ATCC recommendations. A549, NCI-H1975, PC9, and NCI-H3255 cells were grown in RPMI media (Invitrogen, Carlsbad, Calif.) supplemented with 10% FBS (Sigma, St Louis, Mo.), and with 1% Penn/Strep (Invitrogen).
Each compound was prepared as a DMSO stock solution (10 mM). Compounds were tested in duplicate on each plate, with an 11-point serial dilution curve (1:3 dilution). Compound treatment (50 μL) was added from the compound dilution plate to the cell plate. […] Plates were then incubated for 2 hr at 37° C., 5% CO2. […] The wash was then flicked off and ice-cold lysis buffer was added to the cells (50 μL/well). The plate was shaken for 20-30 min at 4° C. to completely lyse the cells. Sample diluent (50 μL/well) was added to the ELISA plate, and the lysate (50 μL) was diluted into the sample diluent in each well of the ELISA plate. Plates were sealed and incubated overnight at 4° C. with shaking. The next day, wells were washed four times with 1× Wash Buffer; plates were taped on lint-free paper after the final wash prior to adding Add Detection Antibody (green, 100 μL/well) to each well and incubating for 1 hr at 37° C. After incubation, wells were washed as described. HRP-Linked secondary antibody (red, 100 μL/well) was added to each well and incubated for 30 min at 37° C. After incubation, the wells were washed as described. TMB Substrate (100 μL/well) was added to each well and the plate incubated for 10 min at 37° C. or 30 min at rt maximum. Stop Solution (100 μL/well) was added to each well at the end of the incubation and plates were shaken gently for a few seconds. […] Data were analyzed using a four-parameter fit in Microsoft Excel.

In the case of `C=CC(=O)N1C[C@@H]2CN(c3nc(Nc4cnn(C)c4)c4ncn(CC)c4n3)C[C@@H]2C1` [Example 16, 1-((cis)-5-(9-ethyl-6-((1-methyl-1H-pyrazol-4-yl)amino)-9H-purin-2-yl)hexahydropyrrolo[3,4-c]pyrrol-2(1H)-yl)prop-2-en-1-one], the IC50 (as a rule, the concentration at which inhibition is half-maximal) in assay [1] is 88 nM; against EGFR del/T790M (PC9-DRH) it was 91 nM; in assay [2], 507 nM.

Consider `C=CC(=O)N[C@@H]1CN(c2nc(Nc3ccc(N4CCN(C)CC4)cc3)c3ncn(C(C)(C)C)c3n2)C[C@H]1F` [Example 52, N-((3R,4R)-1-(9-(tert-butyl)-6-((4-(4-methylpiperazin-1-yl)phenyl)amino)-9H-purin-2-yl)-4-fluoropyrrolidin-3-yl)acrylamide], for which the IC50 was 742 nM in assay [1], 6 nM against EGFR del/T790M (PC9-DRH) and not below 10000 nM in assay [2].

For `C=CC(=O)N[C@H]1CCN(c2nc(Nc3ccc(N4CCN(C(C)C)CC4)cc3)c3ncn(C(C)C)c3n2)C1` [Example 36, (S)-N-(1-(9-isopropyl-6-((4-(4-isopropylpiperazin-1-yl)phenyl)amino)-9H-purin-2-yl)pyrrolidin-3-yl)acrylamide], the concentration for half-maximal inhibition (IC50) in assay [1] worked out at 8 nM; against EGFR del/T790M (PC9-DRH), 9 nM; in assay [2] it was 242 nM.

Turning to `C=CC(=O)N1C[C@@H]2CN(c3nc(Nc4cnn(C)c4)c4ncn(C(C)C)c4n3)C[C@@H]2C1` [Example 25, 1-((cis)-5-(9-isopropyl-6-((1-methyl-1H-pyrazol-4-yl)amino)-9H-purin-2-yl)hexahydropyrrolo[3,4-c]pyrrol-2(1H)-yl)prop-2-en-1-one], the IC50 stood at 49 nM in assay [1], 6 nM against EGFR del/T790M (PC9-DRH) and 805 nM in assay [2].

Regarding `C=CC(=O)N[C@H]1CCN(c2nc(Nc3ccc(N4CCN(C)CC4)cc3)c3ncn(C(C)(C)C)c3n2)C1` [Example 9, (S)-N-(1-(9-(tert-butyl)-6-((4-(4-methylpiperazin-1-yl)phenyl)amino)-9H-purin-2-yl)pyrrolidin-3-yl)acrylamide], the concentration for half-maximal inhibition (IC50) in assay [1] was found to be 32 nM; against EGFR del/T790M (PC9-DRH) it was 26 nM; in assay [2] it was 2740 nM.

As for `C=CC(=O)NC1(C)CN(c2nc(Nc3cnn(C)c3)c3ncn(CC)c3n2)C1` [Example 56, N-(1-(9-ethyl-6-((1-methyl-1H-pyrazol-4-yl)amino)-9H-purin-2-yl)-3-methylazetidin-3-yl)acrylamide], the IC50 in assay [1] was 108 nM; against EGFR del/T790M (PC9-DRH), 2 nM; in assay [2], 504 nM.

As for `C=CC(=O)N1CCC[C@@H](Oc2nc(Nc3cnn(C)c3)c3ncn(C(C)C)c3n2)C1` [Example 57, (R)-1-(3((9-isopropyl-6-((1-methyl-1H-pyrazol-4-yl)amino)-9H-purin-2-yl)oxy)piperidin-1-yl)prop-2-en-1-one], the values for the IC50 (in assay [1]; against EGFR del/T790M (PC9-DRH); in assay [2]) were 89 nM, 44 nM and 3040 nM, respectively.

With `C=CC(=O)N1C[C@@H](F)[C@H](Nc2nc(Nc3ccc(N4CCN(C)CC4)cc3)c3ncn(C(C)C)c3n2)C1` (relative stereo) [Example 19, 1-((trans)-3-fluoro-4-((9-isopropyl-6-((4-(4-methylpiperazin-1-yl)phenyl)amino) -9H-purin-2-yl)amino)pyrrolidin-1-yl)prop-2-en-1-one], the IC50 in assay [1] came to 10 nM; against EGFR del/T790M (PC9-DRH) it was 25 nM; in assay [2] it was 194 nM.

Turning to `C=CC(=O)N[C@@H]1CN(c2nc(Nc3cn(C)nc3C)c3ncn(CC)c3n2)C[C@H]1F` [Example 76, N-((3R,4R)-1-(6-((1,3-dimethyl-1H-pyrazol-4-yl)amino)-9-ethyl-9H-purin-2-yl)-4-fluoropyrrolidin-3-yl)acrylamide], the results for the IC50 (in assay [1]; against EGFR del/T790M (PC9-DRH); in assay [2]) were 30 nM, 2 nM and 394 nM, respectively.

With `C=CC(=O)N[C@@H]1CN(c2nc(Nc3ccc(N4CCC(N(C)C)CC4)cc3OC)c3ncn(C(C)C)c3n2)C[C@H]1F` [Example 90, N-((3R,4R)-1-(6-((4-(4-(dimethylamino)piperidin-1-yl)-2-methoxyphenyl)amino)-9-isopropyl-9H-purin-2-yl)-4-fluoropyrrolidin-3-yl)acrylamide], the IC50 on EGFR del/T790M (PC9-DRH) was 9 nM.

With `C=CC(=O)N1C[C@@H]2CN(c3nc(Nc4ccc(N5CCN(C)CC5)cc4)c4ncn(C(C)(C)C)c4n3)C[C@@H]2C1` [Example 18, 1-((cis)-5-(9-(tert-butyl)-6-((4-(4-methylpiperazin-1-yl)phenyl)amino)-9H-purin-2-yl)hexahydropyrrolo[3,4-c]pyrrol-2(1H)-yl)prop-2-en-1-one], the values for the IC50 (in assay [1]; against EGFR del/T790M (PC9-DRH); in assay [2]) were 32 nM, 27 nM and 4570 nM, respectively.

Turning to `C=CC(=O)Nc1cccc(Oc2nc(Nc3ccc(N4CCN(C)CC4)cc3)c3ncn(C(C)C)c3n2)c1` [Example 22, N-(3-((9-isopropyl-6-((4-(4-methylpiperazin-1-yl)phenyl)amino)-9H-purin-2-yl)oxy)phenyl)acrylamide], the IC50 in assay [1] was found to be 6 nM; at EGFR del/T790M (PC9-DRH), 9 nM; in assay [2], 39 nM.

Take `C=CC(=O)N[C@H]1CCN(c2nc(Nc3cnn(CCN(C)C)c3)c3ncn(C(C)C)c3n2)C1` [Example 43, (S)-N-(1-(6-((1-(2-(dimethylamino)ethyl)-1H-pyrazol-4-yl)amino)-9-isopropyl-9H -purin-2-yl)pyrrolidin-3-yl)acrylamide]: the half-inhibitory concentration (IC50) stood at 74 nM in assay [1], 18 nM against EGFR del/T790M (PC9-DRH) and 1480 nM in assay [2].

Take `C=CC(=O)NC1(C)CN(c2nc(Nc3cnn(CCN(C)C)c3)c3ncn(C(C)C)c3n2)C1` [Example 42, N-(1-(6-((1-(2-(dimethylamino)ethyl)-1H-pyrazol-4-yl)amino)-9-isopropyl-9H-purin-2-yl)-3-methylazetidin-3-yl)acrylamide]: the 50% inhibitory concentration (IC50) in assay [1] came to 26 nM; at EGFR del/T790M (PC9-DRH) it was 38 nM; in assay [2], 1350 nM.

For `C=CC(=O)N(C)[C@H]1C[C@H](Nc2nc(Nc3ccc(N4CCN(C)CC4)cc3)c3ncn(C(C)C)c3n2)C1` [Example 28, N-((trans)-3-((9-isopropyl-6-((4-(4-methylpiperazin-1-yl)phenyl)amino)-9H-purin-2-yl)amino)cyclobutyl)-N-methylacrylamide], the IC50 was 48 nM in assay [1] and 723 nM in assay [2].

`C=CC(=O)N[C@@H]1CN(c2nc(Nc3ccc(N4CCC(N(C)C)CC4)cc3)c3ncn(C(C)C)c3n2)C[C@H]1F` [Example 89, N-((3R,4R)-1-(6-((4-(4-(dimethylamino)piperidin-1-yl)phenyl)amino)-9-isopropyl-9H-purin-2-yl)-4-fluoropyrrolidin-3-yl)acrylamide]: inhibition against EGFR del/T790M (PC9-DRH) was half-maximal at 3 nM (IC50).

Regarding `C=CC(=O)N[C@@H]1CN(c2nc(Nc3cnn(C4CCN(C)CC4)c3)c3ncn(C(C)(C)C)c3n2)C[C@H]1F` [Example 70, N-((3R,4R)-1-(9-(tert-butyl)-6-((1-(1-methylpiperidin-4-yl)-1H-pyrazol-4-yl)amino) -9H-purin-2-yl)-4-fluoropyrrolidin-3-yl)acrylamide], the IC50 was 29 nM in assay [1] and 609 nM in assay [2].

On to `C=CC(=O)N[C@H]1CCN(c2nc(Nc3cnn(C)c3)c3ncn(C4(C)CC4)c3n2)C1` [Example 60, (S)-N-(1-(6-((1-methyl-1H-pyrazol-4-yl)amino)-9-(1-methylcyclopropyl)-9H-purin-2-yl)pyrrolidin-3-yl)acrylamide], for which the IC50 in assay [1] was 317 nM; in assay [2], 1390 nM.
